Five molecules from patent US20260001928A1 (CORTERIA PHARMACEUTICALS, priority 2022, published 2026) can be followed below.

The target of test [1] is T1, human CRF2a receptor (Homo sapiens, UniProt Q13324).
T1 construct: expressed in transfected cells; host or cells: TeloHEAC cells
T1 sequence (Q13324 1-411): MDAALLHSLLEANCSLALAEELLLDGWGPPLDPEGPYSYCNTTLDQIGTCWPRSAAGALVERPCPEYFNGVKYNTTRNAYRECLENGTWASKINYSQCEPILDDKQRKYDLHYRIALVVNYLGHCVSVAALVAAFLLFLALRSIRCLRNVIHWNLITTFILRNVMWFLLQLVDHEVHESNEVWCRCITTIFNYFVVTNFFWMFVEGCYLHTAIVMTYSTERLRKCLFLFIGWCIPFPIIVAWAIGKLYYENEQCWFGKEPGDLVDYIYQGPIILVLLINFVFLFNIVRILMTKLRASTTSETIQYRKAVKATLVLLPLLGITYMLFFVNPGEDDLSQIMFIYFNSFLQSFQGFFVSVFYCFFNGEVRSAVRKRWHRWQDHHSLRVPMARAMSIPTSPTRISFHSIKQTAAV
The test can be described thus: Activity at human CRF2a receptor, cAMP functional assay in TeloHEAC cells. It is filed as cell-based. Conditions: TeloHEAC cells stably expressing human CRF2a receptor, relative to urocortin 2 (100 nM = 100%). The essentials:
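TeloHEAC cells stably expressing human CRF2a (10000 cells/well, suspended in HBSS/20 mM HEPES with 2 mM IBMX) were exposed to compounds for 30 min at 37 °C. cAMP was read as the 665/620 nm fluorescence ratio after 1 h at room temperature. EC50 was derived relative to 100 nM urocortin 2, set as 100%.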

The target of test [2] is T2, CFR1R receptor (Homo sapiens, UniProt P34998).
T2 construct: host or cells: CHO-K1 (clone 2)
T2 sequence (P34998 24-415): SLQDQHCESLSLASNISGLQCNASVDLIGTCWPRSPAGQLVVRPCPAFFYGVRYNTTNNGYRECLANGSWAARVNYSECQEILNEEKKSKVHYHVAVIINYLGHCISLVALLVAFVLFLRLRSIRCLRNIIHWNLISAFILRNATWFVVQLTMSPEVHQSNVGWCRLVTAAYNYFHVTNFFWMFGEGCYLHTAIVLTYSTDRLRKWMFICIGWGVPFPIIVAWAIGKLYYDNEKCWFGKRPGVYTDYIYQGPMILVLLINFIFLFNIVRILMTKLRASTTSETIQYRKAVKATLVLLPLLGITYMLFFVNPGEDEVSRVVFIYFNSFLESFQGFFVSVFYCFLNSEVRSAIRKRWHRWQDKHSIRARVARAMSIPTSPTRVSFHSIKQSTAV
The experiment in a line: Activity at anti-target CFR1R receptor, cAMP assay in CRF1R-overexpression CHO-K1 cells. The conditions noted are these: 100% = Sauvagine at 100 nM; for EC50: cAMP. It is filed as cell-based. In short, it runs like this:
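Uses frozen stocks of CHO-K1 clone 2 cells overexpressing human CRF1R, plated at 4000 cells/well final, with cAMP measured by the same protocol as the TeloHAEC line. Full-activation control: 100 nM Sauvagine.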

The structures appear in SMILES notation. *1 amine or outer side, *2 acyl side, *3 side chain or, on linkers, in order; H or OH if unused. Where a SMILES comes first, the peptide text is derived from it. Side-chain parts run from the residue outwards. [ ]: non-standard residue; d: D form. The star is where a group is joined. C18 diacid = O=C(O)CCCCCCCCCCCCCCCCC(=O)*; γGlu = O=C(O)[C@H](CCC(=O)[*:2])N[*:1]; αMeL = CC(C)C[C@](C)(N)C(=O)O; Abu = CC[C@H](N)C(=O)O; Pentanoyl = CCCCC(=O)*; AEEA = NCCOCCOCC(=O)O; Aib = CC(C)(N)C(=O)O

For `CCCCC(=O)N[C@H](C(=O)N[C@@H](CC(C)C)C(=O)N[C@@H](CO)C(=O)N[C@@H](CC(C)C)C(=O)N[C@@H](CC(=O)O)C(=O)N[C@@H](C(=O)N1CCC[C@H]1C(=O)N[C@H](C(=O)N[C@@H](CCCCN)C(=O)N[C@@H](CC(C)C)C(=O)N[C@@H](CCCCNC(=O)COCCOCCNC(=O)COCCOCCNC(=O)CC[C@H](NC(=O)CCCCCCCCCCCCCCCCC(=O)O)C(=O)O)C(=O)N[C@@H](CCCCN)C(=O)N[C@H](C(=O)N[C@@H](CC(C)C)C(=O)N[C@@H](CC(C)C)C(=O)N[C@@H](CCC(=O)O)C(=O)N[C@@H](CCC(N)=O)C(=O)N[C@@H](CCC(=O)O)C(=O)N[C@@H](CCCCN)C(=O)N[C@@H](CCC(N)=O)C(=O)N[C@@H](CCCCN)C(=O)N[C@@H](CCCCN)C(=O)N[C@@H](CCC(N)=O)C(=O)N[C@@H](CCCNC(=N)N)C(=O)N[C@@H](CCC(=O)O)C(=O)N[C@@H](CCC(N)=O)C(=O)N[C@@H](C)C(=O)N[C@@H](CCC(=O)O)C(=O)N[C@H](C(=O)N[C@@H](CC(N)=O)C(=O)N[C@@H](C)C(=O)N[C@@H](CCC(N)=O)C(=O)N[C@H](C(=O)N[C@@H](CC(C)C)C(=O)N[C@@H](C)C(=O)N[C@@H](CCC(N)=O)C(=O)N[C@H](C(N)=O)C(C)C)[C@@H](C)CC)[C@@H](C)O)[C@@H](C)CC)[C@@H](C)CC)C(C)C)C(C)C` [compound 122] (Pentanoyl-VLSLD[dV]PIKLK([AEEA-AEEA-γGlu-C18 diacid])KILLEQEKQKKQREQAETNAQILAQV-NH2), the EC50 in test [1] amounted to 670 pM. For the same molecule, in test [2], the “Emax (% I)” value was found to be 5 % I and the EC50 was over 250000 pM.

On to `CCCCC(=O)N[C@H](C(=O)N[C@@H](CC(C)C)C(=O)N[C@@H](CO)C(=O)N[C@@H](CC(C)C)C(=O)N[C@@H](CC(=O)O)C(=O)N[C@@H](C(=O)N1CCC[C@H]1C(=O)N[C@H](C(=O)N[C@@H](CCCCN)C(=O)N[C@@](C)(CC(C)C)C(=O)N[C@@H](CCCCNC(=O)COCCOCCNC(=O)COCCOCCNC(=O)CC[C@H](NC(=O)CCCCCCCCCCCCCCCCC(=O)O)C(=O)O)C(=O)N[C@@H](CCCCN)C(=O)N[C@H](C(=O)N[C@@H](CC(C)C)C(=O)N[C@@H](CC(C)C)C(=O)N[C@@H](CCC(=O)O)C(=O)N[C@@H](CCC(N)=O)C(=O)N[C@@H](CCC(=O)O)C(=O)N[C@@H](CCCCN)C(=O)N[C@@H](CCC(N)=O)C(=O)N[C@@H](CCCCN)C(=O)N[C@@H](CCCCN)C(=O)N[C@@H](CCC(N)=O)C(=O)N[C@@H](CCCNC(=N)N)C(=O)N[C@@H](CCC(=O)O)C(=O)N[C@@H](CCC(N)=O)C(=O)N[C@@H](C)C(=O)N[C@@H](CCC(=O)O)C(=O)N[C@H](C(=O)N[C@@H](CC(N)=O)C(=O)NC(C)(C)C(=O)N[C@@H](CCC(N)=O)C(=O)N[C@H](C(=O)N[C@@H](CC(C)C)C(=O)N[C@@H](C)C(=O)N[C@@H](CCC(N)=O)C(=O)N[C@H](C(N)=O)C(C)C)[C@@H](C)CC)[C@@H](C)O)[C@@H](C)CC)[C@@H](C)CC)C(C)C)C(C)C` [compound 123] (Pentanoyl-VLSLD[dV]PIK[αMeL]K([AEEA-AEEA-γGlu-C18 diacid])KILLEQEKQKKQREQAETN[Aib]QILAQV-NH2), for which the EC50 in test [1] is 700 pM; in test [2], over 250000 pM. Besides, in test [2], the “Emax (% I)” value is reported as 14 % I.

In test [1], `CCCCC(=O)N[C@H](C(=O)N[C@@H](CC(C)C)C(=O)N[C@@H](CO)C(=O)N[C@@H](CC(C)C)C(=O)N[C@@H](CC(=O)O)C(=O)N[C@@H](C(=O)N1CCC[C@H]1C(=O)N[C@H](C(=O)N[C@@H](CCCCN)C(=O)N[C@@](C)(CC(C)C)C(=O)N[C@@H](CCCCNC(=O)COCCOCCNC(=O)COCCOCCNC(=O)CC[C@H](NC(=O)CCCCCCCCCCCCCCCCC(=O)O)C(=O)O)C(=O)N[C@@H](CCCCN)C(=O)N[C@H](C(=O)N[C@@H](CC(C)C)C(=O)N[C@@H](CC(C)C)C(=O)N[C@@H](CCC(=O)O)C(=O)N[C@@H](CCC(N)=O)C(=O)N[C@@H](CCC(=O)O)C(=O)N[C@@H](CCCCN)C(=O)N[C@@H](CCC(N)=O)C(=O)N[C@@H](CCCCN)C(=O)N[C@@H](CCCCN)C(=O)N[C@@H](CCC(N)=O)C(=O)N[C@@H](CCCNC(=N)N)C(=O)N[C@@H](CCC(=O)O)C(=O)N[C@@H](CCC(N)=O)C(=O)N[C@@H](C)C(=O)N[C@@H](CCC(=O)O)C(=O)N[C@H](C(=O)N[C@@H](CC(N)=O)C(=O)N[C@H](C(=O)N[C@@H](CCC(N)=O)C(=O)N[C@H](C(=O)N[C@@H](CC(C)C)C(=O)N[C@@H](C)C(=O)N[C@@H](CCC(N)=O)C(=O)N[C@H](C(N)=O)C(C)C)[C@@H](C)CC)C(C)C)[C@@H](C)O)[C@@H](C)CC)[C@@H](C)CC)C(C)C)C(C)C` [compound 124] (Pentanoyl-VLSLD[dV]PIK[αMeL]K([AEEA-AEEA-γGlu-C18 diacid])KILLEQEKQKKQREQAETNVQILAQV-NH2) showed an EC50 of 380 pM. In test [2], the “Emax (% I)” value came out at 14 % I and the EC50 is over 250000 pM.

In test [1], `CC[C@H](C)[C@H](NC(C)=O)C(=O)N[C@H](C(=O)N[C@@H](CC(C)C)C(=O)N[C@@H](CO)C(=O)N[C@@H](CC(C)C)C(=O)N[C@@H](CC(=O)O)C(=O)N[C@@H](C(=O)N1CCC[C@H]1C(=O)N[C@H](C(=O)N[C@@H](CCCCN)C(=O)N[C@@H](CC(C)C)C(=O)N[C@@H](CCCCNC(=O)CC[C@H](NC(=O)CCCCCCCCCCCCCCCCC(=O)O)C(=O)O)C(=O)N[C@@H](CCCCN)C(=O)N[C@H](C(=O)N[C@@H](CC(C)C)C(=O)N[C@@H](CC(C)C)C(=O)N[C@@H](CCC(=O)O)C(=O)N[C@@H](CCC(N)=O)C(=O)N[C@@H](CCC(=O)O)C(=O)N[C@@H](CCCCN)C(=O)N[C@@H](CCC(N)=O)C(=O)N[C@@H](CCCCN)C(=O)N[C@@H](CCCCN)C(=O)N[C@@H](CCC(N)=O)C(=O)N[C@@H](CCCNC(=N)N)C(=O)N[C@@H](CCC(=O)O)C(=O)N[C@@H](CCC(N)=O)C(=O)N[C@@H](C)C(=O)N[C@@H](CCC(=O)O)C(=O)N[C@H](C(=O)N[C@@H](CC(N)=O)C(=O)N[C@@H](C)C(=O)N[C@@H](CCC(N)=O)C(=O)N[C@H](C(=O)N[C@@H](CC(C)C)C(=O)N[C@@H](C)C(=O)N[C@@H](CCC(N)=O)C(=O)N[C@H](C(N)=O)C(C)C)[C@@H](C)CC)[C@@H](C)O)[C@@H](C)CC)[C@@H](C)CC)C(C)C)C(C)C` [compound 126] (Ac-IVLSLD[dV]PIKLK([γGlu-C18 diacid])KILLEQEKQKKQREQAETNAQILAQV-NH2) gave an EC50 of 50 pM. Also, in test [2], the “Emax (% I)” value came out at 20 % I and the EC50 was over 250000 pM.

As to `CC[C@H](NC(=O)[C@H](CC(N)=O)NC(=O)[C@@H](NC(=O)[C@H](CCC(=O)O)NC(=O)[C@H](C)NC(=O)[C@H](CCC(N)=O)NC(=O)[C@H](CCC(=O)O)NC(=O)[C@H](CCCNC(=N)N)NC(=O)[C@H](CCC(N)=O)NC(=O)[C@H](CCCCN)NC(=O)[C@H](CCCCN)NC(=O)[C@H](CCC(N)=O)NC(=O)[C@H](CCCCN)NC(=O)[C@H](CCC(=O)O)NC(=O)[C@H](CCC(N)=O)NC(=O)[C@H](CCC(=O)O)NC(=O)[C@H](CC(C)C)NC(=O)[C@H](CC(C)C)NC(=O)[C@@H](NC(=O)[C@H](CCCCN)NC(=O)[C@H](CCCCNC(=O)CC[C@H](NC(=O)CCCCCCCCCCCCCCCCC(=O)O)C(=O)O)NC(=O)[C@H](CC(C)C)NC(=O)[C@H](CCCCN)NC(=O)[C@@H](NC(=O)[C@@H]1CCCN1C(=O)[C@H](NC(=O)[C@H](CC(=O)O)NC(=O)[C@H](CC(C)C)NC(=O)[C@H](CO)NC(=O)[C@H](CC(C)C)NC(=O)[C@@H](NC(=O)[C@@H](NC(C)=O)[C@@H](C)CC)C(C)C)C(C)C)[C@@H](C)CC)[C@@H](C)CC)[C@@H](C)O)C(=O)N[C@@H](CCC(N)=O)C(=O)N[C@H](C(=O)N[C@@H](CC(C)C)C(=O)N[C@@H](C)C(=O)N[C@@H](CCC(N)=O)C(=O)N[C@H](C(N)=O)C(C)C)[C@@H](C)CC` [compound 127] (Ac-IVLSLD[dV]PIKLK([γGlu-C18 diacid])KILLEQEKQKKQREQAETN[Abu]QILAQV-NH2), a half-maximal response in test [1] (EC50) required 80 pM. In addition, in test [2], the “Emax (% I)” value was 11 % I and the EC50 was over 250000 pM.
